{"source": "DBAASP", "test_in_all_cases": "≥ marks a high value that may be exact or a test limit, other limits are often not marked, values filed in µg/mL are converted to µM", "key": {"[1]": {"test_system": "Staphylococcus aureus ATCC 6538"}, "[2]": {"test_system": "Escherichia coli ATCC 25726"}, "[3]": {"test_system": "Staphylococcus aureus ATCC 25923"}, "[4]": {"test_system": "Candida albicans ATCC 2002"}, "[5]": {"test_system": "Escherichia coli ATCC 25922"}, "[6]": {"test_system": "Acinetobacter baumannii ATCC 19606"}, "[7]": {"test_system": "Pseudomonas aeruginosa ATCC 9027"}, "[8]": {"test_system": "Bacillus subtilis"}, "[9]": {"test_system": "Pseudomonas aeruginosa ATCC 27853"}, "[10]": {"test_system": "Escherichia coli DH5alpha"}, "[11]": {"test_system": "Escherichia coli"}, "[12]": {"test_system": "Staphylococcus aureus"}, "[13]": {"test_system": "Acinetobacter baumannii"}, "[14]": {"test_system": "Klebsiella pneumoniae ATCC 700603"}, "[15]": {"test_system": "Pseudomonas aeruginosa PAO1"}}, "data": [{"smiles": "CC(C)C[C@H](NC(=O)[C@@H]1CCCN1C(=O)CNC(=O)[C@@H]1CCCN1C(=O)[C@H](CC(C)C)NC(=O)CN)C(=O)NCC(=O)N1CCC[C@H]1C(=O)N[C@@H](C)C(=O)NCC(=O)N1CCC[C@H]1C(=O)N[C@@H](CCCCN)C(=O)O", "note": "[GLPGPLGPAGPK]", "values": [{"measurement": "MIC", "setting": "[1]", "result": 1330, "unit": "µM"}]}, {"smiles": "CC[C@H](C)[C@@H]1NC(=O)[C@H](CCSC)NC(=O)[C@@H]2CCCN2C(=O)[C@@H]2CCCN2C(=O)[C@@H](NC(=O)[C@@H](N)Cc2c[nH]c3ccccc23)CSSC[C@@H](C(=O)N[C@@H](CO)C(=O)N[C@@H](CCCN=C(N)N)C(=O)N[C@@H](Cc2ccccc2)C(N)=O)NC(=O)[C@H](CC(C)C)NC(=O)[C@@H]2CCCN2C1=O", "note": "[WCPPMIPLCSRF]", "values": [{"measurement": "MIC", "setting": "[2]", "result": "≥ 200", "unit": "µM"}, {"measurement": "MIC", "setting": "[3]", "result": "> 200", "unit": "µM"}]}, {"smiles": "CC[C@H](C)[C@H](NC(=O)[C@@H](NC(=O)[C@@H](NC(=O)[C@@H]1CCCN1C(=O)[C@H](Cc1c[nH]c2ccccc12)NC(=O)[C@H](Cc1ccccc1)NC(=O)[C@H](CCCN=C(N)N)NC(=O)[C@H](CCCCN)NC(=O)[C@@H](NC(=O)[C@@H](N)CCCN=C(N)N)[C@@H](C)CC)C(C)C)C(C)C)C(=O)N[C@@H](CCCN=C(N)N)C(=O)N[C@H](C(=O)N[C@H](C(=O)N[C@H](C(=O)N[C@@H](C)C(=O)NCC(=O)N[C@@H](Cc1ccc(O)cc1)C(=O)N[C@@H](CC(N)=O)C(=O)N[C@@H](CC(C)C)C(=O)N[C@@H](Cc1ccc(O)cc1)C(=O)N[C@@H](CCCN=C(N)N)C(=O)N[C@@H](C)C(=O)O)C(C)C)C(C)C)[C@@H](C)O", "note": "[RIKRFWPVVIRTVVAGYNLYRA]", "values": [{"measurement": "MIC", "setting": "[4]", "result": 1.75, "unit": "µM"}, {"measurement": "MIC", "setting": "[3]", "result": 28, "unit": "µM"}, {"measurement": "MIC", "setting": "[5]", "result": 1.75, "unit": "µM"}]}, {"smiles": "CC[C@H](C)[C@H](NC(=O)CNC(=O)[C@H](CCCCN)NC(=O)[C@H](CC(C)C)NC(=O)[C@@H](N)Cc1ccccc1)C(=O)N[C@H](C(=O)N[C@@H](CC(=O)O)C(=O)N[C@H](C(=O)N[C@H](C(=O)N[C@@H](CO)C(=O)N[C@@H](CC(N)=O)C(=O)N[C@@H](Cc1c[nH]c2ccccc12)C(=O)N[C@@H](CC(C)C)C(N)=O)C(C)C)[C@@H](C)O)[C@@H](C)CC", "note": "[FLKGIIDTVSNWL]", "values": [{"measurement": "MIC", "setting": "[6]", "result": "> 26.6", "unit": "µM"}]}, {"smiles": "CC(C)C[C@H](NC(=O)[C@H](C)NC(=O)[C@H](Cc1ccccc1)NC(=O)[C@H](CCCCN)NC(=O)[C@H](CCCCN)NC(=O)[C@H](C)NC(=O)[C@H](CC(C)C)NC(=O)[C@H](CCCCN)NC(=O)[C@H](C)NC(=O)[C@H](CC(C)C)NC(=O)[C@H](CC(C)C)NC(=O)[C@H](CCCCN)NC(=O)[C@H](C)NC(=O)[C@@H](N)Cc1ccccc1)C(N)=O", "note": "[FAKLLAKLAKKFAL]", "values": [{"measurement": "MIC", "setting": "[7]", "result": 128, "unit": "µM"}, {"measurement": "MIC", "setting": "[1]", "result": 32, "unit": "µM"}]}, {"smiles": "NCCCC[C@H](NC(=O)[C@H](Cc1c[nH]c2ccccc12)NC(=O)CN)C(=O)N[C@@H](CCCN=C(N)N)C(=O)N[C@@H](CCCCN)C(=O)N[C@@H](CCCN=C(N)N)C(=O)N[C@@H](Cc1ccccc1)C(=O)NCC(=O)O", "note": "[GWKRKRFG]", "values": [{"measurement": "MIC", "setting": "[8]", "result": "≥ 200", "unit": "µM"}, {"measurement": "MIC", "setting": "[3]", "result": "> 200", "unit": "µM"}, {"measurement": "MIC", "setting": "[9]", "result": "> 200", "unit": "µM"}, {"measurement": "MIC", "setting": "[10]", "result": "≥ 200", "unit": "µM"}]}, {"smiles": "CC[C@H](C)[C@H](NC(=O)[C@H](CO)NC(=O)[C@H](C)NC(=O)[C@@H]1CCCN1C(=O)[C@H](CC(C)C)NC(=O)CN)C(=O)N[C@@H](CO)C(=O)N[C@@H](Cc1c[nH]c2ccccc12)C(=O)N[C@H](C(=O)N[C@@H](CCCCN)C(=O)N[C@@H](CCCN=C(N)N)C(=O)N[C@@H](CCCCN)C(=O)N[C@@H](CCCN=C(N)N)C(=O)N[C@@H](CCC(N)=O)C(=O)N[C@@H](CCC(N)=O)C(N)=O)[C@@H](C)CC", "note": "[GLPASISWIKRKRQQ]", "values": [{"measurement": "MIC", "setting": "[11]", "result": "> 141", "unit": "µM"}, {"measurement": "MIC", "setting": "[8]", "result": 17.6, "unit": "µM"}, {"measurement": "MIC", "setting": "[12]", "result": 141, "unit": "µM"}]}, {"smiles": "CC(C)C[C@H](NC(=O)[C@H](CC(C)C)NC(=O)[C@H](CCCCN)NC(=O)[C@H](CCCCN)NC(=O)[C@H](CC(C)C)NC(=O)[C@@H](NC(=O)[C@H](CCCCN)NC(=O)[C@H](CC(C)C)NC(=O)[C@@H](N)Cc1ccccc1)[C@@H](C)O)C(N)=O", "note": "[FLKTLKKLL]", "values": [{"measurement": "MIC", "setting": "[3]", "result": 58, "unit": "µM"}, {"measurement": "MIC", "setting": "[5]", "result": 58, "unit": "µM"}, {"measurement": "MIC", "setting": "[9]", "result": 7.25, "unit": "µM"}, {"measurement": "MIC", "setting": "[6]", "result": 58, "unit": "µM"}]}, {"smiles": "CC[C@H](C)[C@H](NC(=O)[C@H](C)NC(=O)[C@H](CCCN=C(N)N)NC(=O)[C@H](Cc1ccc(O)cc1)NC(=O)[C@H](CC(C)C)NC(=O)[C@H](CC(N)=O)NC(=O)[C@H](Cc1ccc(O)cc1)NC(=O)CNC(=O)[C@H](C)NC(=O)[C@@H](NC(=O)[C@@H](NC(=O)[C@@H](NC(=O)[C@H](CCCN=C(N)N)NC(=O)[C@@H](NC(=O)[C@@H](NC(=O)[C@@H](NC(=O)[C@@H]1CCCN1C(=O)[C@H](Cc1c[nH]c2ccccc12)NC(=O)[C@H](Cc1ccccc1)NC(=O)[C@H](CCCN=C(N)N)NC(=O)[C@H](CCCCN)NC(=O)[C@@H](NC(=O)[C@@H](N)CCCN=C(N)N)[C@@H](C)CC)C(C)C)C(C)C)[C@@H](C)CC)[C@@H](C)O)C(C)C)C(C)C)C(=O)O", "note": "[RIKRFWPVVIRTVVAGYNLYRAI]", "values": [{"measurement": "MIC", "setting": "[4]", "result": 0.84, "unit": "µM"}, {"measurement": "MIC", "setting": "[8]", "result": 13.4, "unit": "µM"}, {"measurement": "MIC", "setting": "[3]", "result": 13.4, "unit": "µM"}, {"measurement": "MIC", "setting": "[5]", "result": 3.36, "unit": "µM"}]}, {"smiles": "CC[C@H](C)[C@H](NC(=O)[C@H](C)N)C(=O)N[C@@H](Cc1c[nH]c2ccccc12)C(=O)N[C@@H](CCCN=C(N)N)C(=O)N[C@@H](CCCCN)C(=O)N[C@@H](C)C(=O)N[C@H](C(=O)N[C@@H](CCCN=C(N)N)C(=O)N[C@@H](CCCN=C(N)N)C(=O)N[C@@H](CC(C)C)C(=O)N[C@H](C(=O)N[C@@H](CCCCN)C(=O)N[C@@H](CC(C)C)C(=O)N[C@H](C(=O)N[C@H](C(N)=O)C(C)C)[C@@H](C)CC)C(C)C)[C@@H](C)O", "note": "[AIWRKATRRLVKLIV]", "values": [{"measurement": "MIC", "setting": "[7]", "result": 3, "unit": "µM"}, {"measurement": "MIC", "setting": "[3]", "result": 12, "unit": "µM"}, {"measurement": "MIC", "setting": "[5]", "result": 12.5, "unit": "µM"}, {"measurement": "MIC", "setting": "[13]", "result": 3.12, "unit": "µM"}, {"measurement": "MIC", "setting": "[14]", "result": 25, "unit": "µM"}]}, {"smiles": "CC(C)C[C@H](NC(=O)[C@H](C)NC(=O)[C@H](CC(C)C)NC(=O)[C@H](CC(C)C)NC(=O)[C@H](CCCCN)NC(=O)[C@H](CCCCN)NC(=O)[C@H](C)NC(=O)[C@H](CC(C)C)NC(=O)[C@H](CCCCN)NC(=O)[C@H](C)NC(=O)[C@H](CC(C)C)NC(=O)[C@H](CCCCN)NC(=O)[C@H](CCCCN)NC(=O)[C@H](C)NC(=O)[C@@H](N)Cc1ccccc1)C(N)=O", "note": "[FAKKLAKLAKKLLAL]", "values": [{"measurement": "MIC", "setting": "[7]", "result": 30.2, "unit": "µM"}, {"measurement": "MIC", "setting": "[1]", "result": 3.02, "unit": "µM"}]}, {"smiles": "CC[C@H](C)[C@H](NC(=O)CNC(=O)[C@H](CO)NC(=O)[C@H](CC(C)C)NC(=O)[C@H](C)NC(=O)CNC(=O)[C@H](CC(C)C)NC(=O)[C@@H](NC(=O)[C@H](CC(C)C)NC(=O)[C@@H]1CCCN1C(=O)[C@H](CC(C)C)NC(=O)[C@@H](N)Cc1ccccc1)C(C)C)C(=O)N[C@@H](CC(C)C)C(=O)N1CCC[C@H]1C(=O)N[C@@H](CCCCN)C(=O)N[C@H](C(=O)N[C@@H](CC(C)C)C(N)=O)[C@@H](C)CC", "note": "[FLPLVLGALSGILPKIL]", "values": [{"measurement": "MIC", "setting": "[4]", "result": 4.68, "unit": "µM"}, {"measurement": "MIC", "setting": "[8]", "result": 5.32, "unit": "µM"}, {"measurement": "MIC", "setting": "[15]", "result": 2.66, "unit": "µM"}, {"measurement": "MIC", "setting": "[3]", "result": 2.66, "unit": "µM"}, {"measurement": "MIC", "setting": "[9]", "result": 2.66, "unit": "µM"}]}, {"smiles": "CC[C@H](C)[C@H](N)C(=O)N[C@@H](CC(N)=O)C(=O)N[C@@H](Cc1c[nH]c2ccccc12)C(=O)N[C@@H](CCCCN)C(=O)N[C@@H](CCCCN)C(=O)N[C@@H](CC(C)C)C(=O)NCC(=O)N[C@@H](CCCCN)C(=O)N[C@@H](CCCCN)C(=O)N[C@H](C(=O)N[C@@H](CC(C)C)C(=O)NCC(=O)N[C@@H](C)C(=O)N[C@@H](CC(C)C)C(N)=O)[C@@H](C)CC", "note": "[INWKKLGKKILGAL]", "values": [{"measurement": "MIC", "setting": "[11]", "result": 43, "unit": "µM"}, {"measurement": "MIC", "setting": "[8]", "result": 15.5, "unit": "µM"}]}, {"smiles": "CC[C@H](C)[C@H](N)C(=O)N[C@@H](CC(N)=O)C(=O)N[C@@H](Cc1c[nH]c2ccccc12)C(=O)N[C@@H](CCCCN)C(=O)N[C@@H](CCCCN)C(=O)N[C@H](C(=O)N[C@@H](Cc1ccccc1)C(=O)N[C@@H](CCC(N)=O)C(=O)N[C@@H](CCCCN)C(=O)N[C@H](C(=O)N[C@@H](CCCCN)C(=O)N[C@@H](CC(N)=O)C(=O)N[C@@H](CC(C)C)C(=O)N[C@H](C(N)=O)C(C)C)C(C)C)[C@@H](C)CC", "note": "[INWKKIFQKVKNLV]", "values": [{"measurement": "MIC", "setting": "[11]", "result": 8, "unit": "µM"}, {"measurement": "MIC", "setting": "[8]", "result": "≥ 45", "unit": "µM"}]}]}
